Reference: patent publication US20230000820A1, “SOLID DOSAGE FORM OF N-1-PYRROLIDINE-N-5-(3-TRIFLUOROMETHOXY)PHENYL BIGUANIDE AND USES THEREOF” (ImmunoMet Therapeutics, Inc., priority 2021, published 2023)
Where two headings read alike, the source gives them in different places.

How the values were obtained:
human subjects [1] = conditions: in vivo
Experimental: (§1) A phase 1 clinical study investigating the safety and tolerability of compound 1 in human subjects was conducted. Healthy volunteers were administered either an uncoated tablet at 100 mg QD (cohort 1, N=6), 200 mg QD (cohort 2, N=6), or 400 mg QD (cohort 3, N=6), or a coated tablet at 400 mg (cohort 4, N=6) or 800 mg QD (cohort 5, N=6), and the compound 1 plasma concentration achieved by the subjects was recorded over time (FIGS. 2 and 4). Cancer patients were administered either an uncoated tablet at 100 mg QOD (cohort 1, N=3), 200 mg QOD (cohort 2, N=3), 400 mg QOD (cohort 3, N=3), 800 mg QOD (cohort 4, N=3), or 1200 mg QOD (cohort 5, N=3), or were administered an uncoated tablet at 800 mg QD (cohort 6, N=3) or 1200 mg QD (cohort 7, N=4), and the compound 1 plasma concentration achieved by the subjects was recorded over time (FIGS. 3 and 4). A phase 1 clinical study investigating the safety and tolerability of compound 1 in human subjects was conducted. 22 subjects with solid tumors were enrolled and split into seven cohorts. Cohort 1 received 100 mg QOD, cohort 2 received 200 mg QOD, cohort 3 received 400 mg QOD, cohort 4 received 800 mg QOD, cohort 5 received QOD, cohort 6 received 1,200 mg QOD, cohort 6 received 800 mg QD, and cohort 7 received 1,200 mg QD.

human subjects [2] = conditions: in vivo; remark: listed apart in the source
Experimental: as §1, with “4).” for “4). A phase 1 clinical study investigating the safety and tolerability of compound 1 in human subjects was conducted. 22 subjects with solid tumors were enrolled and split into seven cohorts. Cohort 1 received 100 mg QOD, cohort 2 received 200 mg QOD, cohort 3 received 400 mg QOD, cohort 4 received 800 mg QOD, cohort 5 received QOD, cohort 6 received 1,200 mg QOD, cohort 6 received 800 mg QD, and cohort 7 received 1,200 mg QD.”

[3] = set-up: species or system Beagle dogs; conditions: dog, in vivo, po
Experimental: (§2) Animals were dosed with N-1-pyrrolidine-N-5-(3-trifluoromethoxy)phenyl biguanide acetate salt as specified in Table 1. Dosages were freshly prepared on the day of dosing. The PO (per os) solution was DI water. The enteric capsule was HMPC enteric-coated capsules. The test substance was prepared and used immediately before administration. The preparation method was to weigh N-1-pyrrolidine-N-5-(3-trifluoromethoxy)phenyl biguanide and add sterile distilled water. The mixture was titrated to final volumes by mixing via sonication for 2 minutes and vortexing for 5 minutes. During the administration time, the preparation was handled at room temperature. All animals for IV administration had free access to food and water. Animals for PO were fasted overnight prior to dosing and were fed approximately 2 hours after dosing. Group 2 shared the same 2 animals. Animals in PO_A arm were dosed first. After 2 days washout period, animals in PO_B arm were dosed. After 2 days washout period, animals in PO_C arm were dosed. Clinical observations of animals treated with compound 1 were recorded as specified in Tables 3-5.
Plasma for both IV and PO dosing was sampled from animals pre-dose, and 5 minutes, 15 minutes, 30 minutes, 1 hour, 2 hours, 4 hours, 8 hours, and 24 hours post dose.
Samples were collected via venipuncture of peripheral veins except the dosing vein. 0.3 mL of blood was drawn per time point. The anticoagulant used was potassium EDTA. Whole blood samples were gently inverted several times to ensure anticoagulation then placed on wet ice prior to centrifugation. Within 30 minutes of collection, the samples were centrifuged at approximately 2000×g (force) for 10 minutes at 2 to 8° C. to obtain plasma. The resultant plasma samples were immediately separated divided into 2 aliquots (˜[…] each) and transferred to cryogenic vial. Samples were maintained on wet ice throughout processing and stored in a freezer at −75±15° C. prior to analysis.
The standard curve was run in duplicate with a minimum of six standards, and a minimum of five standards and the LLOQ should fall within ±20% of the nominal value. Verapamil and dexamethasone were normally used as internal standards. […] A minimum of duplicate QC's at three concentrations (low, mid, and high QC) were incorporated into each run with the low QC no more than 3×LLOQ, the mid QC around the middle of the curve, and the high QC should be near the ULOQ (minimally 80% but less than 100% of the value of the highest standard) for the run and the mean value should be within ±20% of the theoretical value. The results of the QC's provide the basis for accepting or rejecting the run. At least 67% or four of six QC's should be within 20% of their respective nominal values; 33% of the QC's (not replicates of the same concentration) can fall outside 20% of nominal value. The simplest model that adequately describes the concentration-response relationship should be used. Linear or quadratic regression can be used. Weighting was 1/x or 1/x2.
Concentrations of Test Article in the plasma samples were analyzed using a LC-MS/MS method. WinNonlin (Phoenix™, version 6.1) or other similar software will be used for pharmacokinetic calculations. The following pharmacokinetic parameters were be calculated, whenever possible from the plasma concentration versus time data: PO administration: T1/2, Cmax, Tmax, MRTinf, AUCinf, AUClast, F%, Number of Points for Regression (FIG. 1). […]

Beagle dogs = assay: Clinical Observation/Cageside Observation of dogs treated with compound 1 (Example 1); format: in vivo
Experimental: as §2

SMILES: N=C(NC(=N)N1CCCC1)Nc1cccc(OC(F)(F)F)c1 [compound 1, N-1-pyrrolidine-N-5-(3-trifluoromethoxy)phenyl biguanide]
- Adverse events reported, character (human subjects [1]): primarily GI, low-grade, monitorable, manageable, and reversible
- Dose limiting toxicities (human subjects [1]): no dose limiting toxicities
- Dose suggested as suitable for phase 2 studies (human subjects [1]): 800 mg QD
- Gastrointestinal adverse events (human subjects [1]): Low-grade gastrointestinal adverse events were prominent
- Gastrointestinal adverse events (human subjects [2]): Low-grade gastrointestinal adverse events were prominent
- Notes: AUC [3]: Improved AUC
- Notes: Bioavailability [3]: Improved
- Notes: PK [3]: no difference in PK
- AUCInf ([3]; 100 mg/kg): 10750 ng·h/mL
- T1/2 ([3]; 100 mg/kg): 6.65 h
- Notes: tolerability (Beagle dogs; PO A, HPMC Enteric Coating Capsule, vs Initial Formulation and Dosing (PO B)): Improved
- Notes: tolerability (Beagle dogs; PO C, Zofran given prior to compound 1 dosing): no difference
- Loose feces observed, timepoint (Beagle dogs; dog, in vivo): d. Loose feces was observed from POC-4(8319440) at 8 h timepoint
- Comment present (Beagle dogs; dog, in vivo, 100 mg/kg): No
- Discoloration (Beagle dogs; dog, in vivo, 100 mg/kg): No
- Dyspnea (labored breathing) (Beagle dogs; dog, in vivo, 100 mg/kg): No
- Emesis observed, timepoint (Beagle dogs; dog, in vivo, 100 mg/kg): c. “Loose feces” and “emesis” were observed from POA-4(8319440) at 4 h timepoint
- Feces with abnormal content (Beagle dogs; dog, in vivo, 100 mg/kg): No
- Few feces (Beagle dogs; dog, in vivo, 100 mg/kg): No
- Frothy (Beagle dogs; dog, in vivo, 100 mg/kg): No
- Loose feces (Beagle dogs; dog, in vivo, 100 mg/kg): Yes(f)
- Reduced food intake (Beagle dogs; dog, in vivo, 100 mg/kg): No
- Soft Stool (Beagle dogs; dog, in vivo, 100 mg/kg): No
- Soft stool observed, timepoint (Beagle dogs; dog, in vivo, 100 mg/kg): f. Soft stool was observed from POA-3(8310744) and POA-4(8319440) at 24 h timepoint
- Some broken capsule found in the loose feces, timepoint (Beagle dogs; dog, in vivo, 100 mg/kg): b. Some broken capsule was found in the loose feces at 30 min timepoint from POA-3
- Temperature Drop (Beagle dogs; dog, in vivo, 100 mg/kg): No
- Temperature Rise (Beagle dogs; dog, in vivo, 100 mg/kg): No
- Torpidity (Beagle dogs; dog, in vivo, 100 mg/kg): No
- Tremor (slight) (Beagle dogs; dog, in vivo, 100 mg/kg): No
- Uncoordinated movement (Beagle dogs; dog, in vivo, 100 mg/kg): No
- Weight drop (Beagle dogs; dog, in vivo, 100 mg/kg): No
- Comment present (Beagle dogs; dog, in vivo, iv, 10 mg/kg): No
- Diarrhea (Beagle dogs; dog, in vivo, iv, 10 mg/kg): No
- Discoloration (Beagle dogs; dog, in vivo, iv, 10 mg/kg): No
- Dyspnea (labored breathing) (Beagle dogs; dog, in vivo, iv, 10 mg/kg): No
- Feces with abnormal content (Beagle dogs; dog, in vivo, iv, 10 mg/kg): No
- Few feces (Beagle dogs; dog, in vivo, iv, 10 mg/kg): No
- Frothy (Beagle dogs; dog, in vivo, iv, 10 mg/kg): No
- Loose feces (Beagle dogs; dog, in vivo, iv, 10 mg/kg): No
- Reduced food intake (Beagle dogs; dog, in vivo, iv, 10 mg/kg): No
- Soft Stool (Beagle dogs; dog, in vivo, iv, 10 mg/kg): No
- Temperature Drop (Beagle dogs; dog, in vivo, iv, 10 mg/kg): No
- Temperature Rise (Beagle dogs; dog, in vivo, iv, 10 mg/kg): No
- Torpidity (Beagle dogs; dog, in vivo, iv, 10 mg/kg): No
- Tremor (slight) (Beagle dogs; dog, in vivo, iv, 10 mg/kg): No
- Uncoordinated movement (Beagle dogs; dog, in vivo, iv, 10 mg/kg): No
- Weight drop (Beagle dogs; dog, in vivo, iv, 10 mg/kg): No
